# Reference: PMC4466525, “Design, Synthesis and Structure-Activity Relationship Studies of Novel Survivin Inhibitors with Potent Anti-Proliferative Properties” (PLoS ONE, 2015)
# Columns and labels:
# A375 = assay: Cell viability (MTS) anti-proliferative assay, A375; type: cell-based; settings: A-375, A375 human melanoma, 48 h treatment, n = 4, read-out: IC50 values ± SEM, A375
# Protocol: The anti-proliferative effect of UC-112 and its analogs were tested in human melanoma (A375, M14 and M14/LCC6MDR1) and human prostate cancer (PC-3) cell lines. All the cell lines were purchased from ATCC (American Type Culture Collection, Manassas, VA). The cancer cells were cultured using the supplemented cell culture medium as described before at 37°C in a humidified atmosphere containing 5% CO2. 5000 cells in logarithm growing phase were seeded overnight into each well of a 96-well plate. Then the cells were continuously incubated with sequential diluted compound solution (10 nM to 100 μM, 100 μl per well) in cell culture medium.
# NCI-60 cell lines = assay: NCI-60 cell line screening (SRB), whole panel; type: cell-based, human
# Protocol: (§1) Four compounds including the parental compound UC-112 were submitted to National Cancer Institute for its NCI-60 cell line screening, initially tested at one concentration (10 μM), and subsequently selected for full five concentration testing following the standard protocols disclosed by NCI [34]. In brief, cells were plated into 96 well micro-titer plates 24 h prior to the treatment of compound solution for 48 h, then the cell viability was read out through absorbance of sulforhodamine B (SRB) staining.
# [1] = system: renal cancer cell line UO-31; assay: NCI-60 five dose screening, UO-31; type: cell-based; settings: Homo sapiens, renal cancer UO-31
# Protocol: as §1
# HCT-15 (colon cancer) = assay: NCI-60 five dose screening, HCT-15; type: cell-based; settings: Homo sapiens, colon cancer HCT-15
# Protocol: as §1
# [2] = system: NCI/ADR-RES (ovarian cancer); assay: NCI-60 five dose screening, NCI/ADR-RES; type: cell-based; settings: Homo sapiens, NCI-60 five dose
# Protocol: as §1
# [3] = Aqueous solubility, shake-flask method; type: physicochemical; settings: PBS buffer, thermodynamic from solid, PBS pH 7.4, test concentration 200 μM
# Protocol: (§2) All these experiments were performed by a contract research service company, Eurofins Panlabs Inc. (Study Number 100017964). Aqueous solubility (μM) was determined using the shake-flask method by comparing the peak area of the principal peak in a calibration standard (200 μM) containing organic solvent (methanol/water, 60/40, v/v) with the peak area of the corresponding peak in a buffer sample. Metabolic stability study was carried out by incubating compound 4g with human liver microsomes. Metabolic stability which is expressed as percent of the parent compound remaining, was calculated by comparing the peak area of the compound at the time point relative to that at time-0. The half-life (T1/2) was estimated from the slope of the initial linear range of the logarithmic curve of compound remaining (%) vs. time. In the cytochrome P450 inhibition study, human liver microsomes (0.1 mg/mL) were incubated with different substrates and compound 4g for 10 minutes. After the incubation, peak areas corresponding to the metabolite of each substrate were recorded. The percent of control activity was then calculated by comparing the peak area obtained in the presence of compound 4g to that obtained in the absence of compound 4g. Subsequently, the percent inhibition was calculated by subtracting the percent control activity from 100.
# [4] = Metabolic stability in human liver microsomes; type: in vitro ADME
# Protocol: as §2
# CYP2B6 = target: T1, CYP2B6 (Homo sapiens, UniProt P20813); assay: Cytochrome P450 inhibition, CYP2B6; type: in vitro ADME; settings: probe bupropion, substrate bupropion, human liver microsomes 0.1 mg/mL, read-out: % inhibition of control values, CYP2B6
# T1 construct: tissue Eurofins Panlabs Inc. (contract research service) Study Number 100017964; host or cells: human liver microsomes
# T1 sequence (P20813 whole entry): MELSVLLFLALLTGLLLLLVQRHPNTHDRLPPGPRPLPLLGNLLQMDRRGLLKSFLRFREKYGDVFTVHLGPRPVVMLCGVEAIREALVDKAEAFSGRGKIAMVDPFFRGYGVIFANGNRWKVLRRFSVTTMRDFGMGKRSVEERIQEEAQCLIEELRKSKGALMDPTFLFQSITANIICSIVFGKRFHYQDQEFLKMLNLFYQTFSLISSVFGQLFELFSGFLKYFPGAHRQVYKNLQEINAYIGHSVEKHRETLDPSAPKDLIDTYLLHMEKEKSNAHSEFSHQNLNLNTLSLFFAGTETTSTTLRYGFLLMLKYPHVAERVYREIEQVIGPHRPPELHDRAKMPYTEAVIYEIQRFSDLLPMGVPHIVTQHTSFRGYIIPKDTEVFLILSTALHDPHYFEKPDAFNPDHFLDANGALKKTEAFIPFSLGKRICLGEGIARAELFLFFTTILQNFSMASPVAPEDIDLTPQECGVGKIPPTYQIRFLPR
# Protocol: as §2
# CYP2C8 = target: T2, CYP2C8 (Homo sapiens, UniProt P10632); assay: Cytochrome P450 inhibition, CYP2C8; type: in vitro ADME; settings: probe paclitaxel, substrate paclitaxel, human liver microsomes 0.1 mg/mL, read-out: % inhibition of control values, CYP2C8
# T2 construct: tissue Eurofins Panlabs Inc. (contract research service) Study Number 100017964; host or cells: human liver microsomes
# T2 sequence (P10632 whole entry): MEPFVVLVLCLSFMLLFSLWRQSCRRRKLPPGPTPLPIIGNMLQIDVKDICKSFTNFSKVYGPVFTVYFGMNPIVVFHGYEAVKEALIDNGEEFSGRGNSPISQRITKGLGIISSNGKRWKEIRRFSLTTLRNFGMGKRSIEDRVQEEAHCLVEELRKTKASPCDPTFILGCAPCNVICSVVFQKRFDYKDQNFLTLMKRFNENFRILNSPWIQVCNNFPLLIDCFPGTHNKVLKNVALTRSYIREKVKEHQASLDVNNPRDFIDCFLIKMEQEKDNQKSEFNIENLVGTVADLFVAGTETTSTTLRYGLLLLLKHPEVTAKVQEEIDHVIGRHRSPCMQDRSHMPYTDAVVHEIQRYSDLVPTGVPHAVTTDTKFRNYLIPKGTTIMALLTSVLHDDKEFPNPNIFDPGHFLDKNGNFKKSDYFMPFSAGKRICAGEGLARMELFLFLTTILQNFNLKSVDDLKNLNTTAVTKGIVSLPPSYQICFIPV
# Protocol: as §2
# CYP2C19 = target: T3, CYP2C19 (Homo sapiens, UniProt P33261); assay: Cytochrome P450 inhibition, CYP2C19; type: in vitro ADME; settings: probe omeprazole, substrate omeprazole, human liver microsomes 0.1 mg/mL, read-out: % inhibition of control values, CYP2C19
# T3 construct: tissue Eurofins Panlabs Inc. (contract research service) Study Number 100017964; host or cells: human liver microsomes
# T3 sequence (P33261 whole entry): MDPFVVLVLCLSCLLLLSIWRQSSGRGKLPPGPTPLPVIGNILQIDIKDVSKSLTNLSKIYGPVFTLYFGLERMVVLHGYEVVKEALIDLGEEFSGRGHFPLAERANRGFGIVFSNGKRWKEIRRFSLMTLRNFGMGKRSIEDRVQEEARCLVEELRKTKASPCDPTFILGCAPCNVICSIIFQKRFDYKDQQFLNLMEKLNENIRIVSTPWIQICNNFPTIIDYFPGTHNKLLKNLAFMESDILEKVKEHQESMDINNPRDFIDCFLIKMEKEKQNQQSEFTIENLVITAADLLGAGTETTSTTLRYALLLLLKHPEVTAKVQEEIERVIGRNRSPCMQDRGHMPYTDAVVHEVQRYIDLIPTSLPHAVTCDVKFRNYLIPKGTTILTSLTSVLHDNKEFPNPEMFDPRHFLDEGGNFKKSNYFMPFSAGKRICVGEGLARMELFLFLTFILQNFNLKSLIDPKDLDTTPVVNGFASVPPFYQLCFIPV
# Protocol: as §2
# CYP2D6 = target: T4, CYP2D6 (Homo sapiens, UniProt P10635); assay: Cytochrome P450 inhibition, CYP2D6; type: in vitro ADME; settings: probe dextromethorphan, substrate dextromethorphan, human liver microsomes 0.1 mg/mL, read-out: % inhibition of control values, CYP2D6
# T4 construct: tissue Eurofins Panlabs Inc. (contract research service) Study Number 100017964; host or cells: human liver microsomes
# T4 sequence (P10635 whole entry): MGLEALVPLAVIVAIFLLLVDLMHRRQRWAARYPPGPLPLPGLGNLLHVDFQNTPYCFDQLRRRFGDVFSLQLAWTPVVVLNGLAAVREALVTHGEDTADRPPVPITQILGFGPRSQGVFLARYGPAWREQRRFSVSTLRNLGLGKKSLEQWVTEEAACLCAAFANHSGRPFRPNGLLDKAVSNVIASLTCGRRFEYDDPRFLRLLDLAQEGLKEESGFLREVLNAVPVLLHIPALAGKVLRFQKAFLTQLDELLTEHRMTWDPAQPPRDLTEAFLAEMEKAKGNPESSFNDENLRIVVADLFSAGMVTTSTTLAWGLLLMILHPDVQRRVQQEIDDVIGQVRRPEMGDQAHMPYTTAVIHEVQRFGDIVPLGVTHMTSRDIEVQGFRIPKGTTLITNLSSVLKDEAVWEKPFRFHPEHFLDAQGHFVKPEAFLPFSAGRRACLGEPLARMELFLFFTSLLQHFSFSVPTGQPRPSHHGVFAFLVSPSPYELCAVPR
# Protocol: as §2
# survivin = target: T5, survivin (Homo sapiens, UniProt O15392); assay: Western blotting of survivin level, PC-3 cells; type: cell-based; settings: 24 h
# T5 construct: endogenous in cells; host or cells: A375 cells
# T5 sequence (O15392 whole entry): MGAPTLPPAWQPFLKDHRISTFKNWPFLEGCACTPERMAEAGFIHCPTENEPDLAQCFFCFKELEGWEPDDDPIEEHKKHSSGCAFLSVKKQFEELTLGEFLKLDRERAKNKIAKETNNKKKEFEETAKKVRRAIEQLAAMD
# caspase 3/7 = assay: Caspase 3/7 functional assay (Caspase-Glo 3/7); type: cell-based, human; settings: 1 μM, 24 h, A375 or PC-3 cells, N = 3
# Protocol: The caspase 3/7 activity of cancer cells treated by DMSO control or compound of interest was analyzed using Glo Caspase-Glo 3/7 kit from Promega Corporation (Madison, WI) as per manufacturer’s instructions in similar protocol as described before. The readings of relative luminescence unit were normalized by the cell viability read from the same well determined by compatible CytoTox-Fluor Cytotoxicity assay kit (Promega, WI).
# XIAP, cIAP1 or cIAP2 = assay: DARTS assay, other IAPs; type: binding, human; settings: 20 μM, pronase-digested A375 or M14 cell lysates
# Protocol: Drug affinity responsive target stability (DARTS) assay was performed to identify the protein targets of UC-112 analogs in A375 or M14 cell lysates following the protocols described in the literature. Briefly, A375 or M14 lysates were prepared in non-denaturing M-PER lysis buffer (Thermo Fisher Scientific, Waltham, MA) with protease and phosphatase inhibitors. Then TNC (Tris, NaCl, CaCl2) buffer was added into cell lysates before the total protein concentration of lysate being determined by BCA protein assay kit (Thermo Fisher Scientific, Waltham, MA). The lysates were split into two groups: one group was added with compound of interest solution, the other group was added with same amount of vehicle (DMSO). The samples were mixed thoroughly and incubated at room temperature for 1 h. Then 10 mg/mL pronase stock solution was added into both compound treated or vehicle control groups to achieve the final dilution of 1:100, 1:300, 1:1000 and 1:3000. One aliquot of each group was kept as un-digested control. The proteolysis was performed at room temperature for 30 min before ice cold protease inhibitor stock being added into the mixture. Then SDS loading buffer was added into all the samples and heated to 70°C for 10 min. Finally, the results were analyzed by SDS-PAGE and immunoblotting.
smiles,measurement,setting,value
"CC(C)c1ccc(COCc2cc(CN3CCCC3)c(O)c3ncccc23)cc1 [4g, 5-(((4-isopropylbenzyl)oxy)methyl)-7-(pyrrolidin-1-ylmethyl)quinolin-8-ol]",IC50,A375,900 ± 100 nM
same,GI50,"NCI-60 cell lines; Homo sapiens, five dose testing, 48 h, SRB, read-out: Average GI50 over all cancer cell lines in the NCI-60 panel",500 nM
same,Activity in NCI-60 one-concentration screening,"NCI-60 cell lines; one concentration, 10 μM",good activity
same,GI50,[1],52.5 nM
same,GI50,HCT-15 (colon cancer),46.8 nM
same,GI50,[2],50.1 nM
same,solubility,[3],149 µM
same,microsomal CLint at 100 nM,[4]; human,137 µL/min/mg
same,half-life at 100 nM,[4]; test concentration 100 nM,51 min
same,inhibition at 10 min,CYP2B6,21%
same,inhibition at 10 min,CYP2C8,21%
same,inhibition at 10 min,CYP2C19,45%
same,inhibition at 10 min,CYP2D6,87%
same,"Reduction of survivin level, PC-3","survivin; 300 nM, lane density by ImageJ",over 50%
same,"Effect on survivin level, PC-3",survivin; gradient increasing dose,dose-dependently suppressed survivin level
same,Caspase 3/7 activation relative to DMSO control group,caspase 3/7,up to 4 folds
same,Effect on protease susceptibility of other IAPs (DARTS),"XIAP, cIAP1 or cIAP2",negligible effects
